What was measured:
[1] = system: panel of haematalogical cancer cell lines; assay: Compound A with BTK inhibitors, 72-hour in vitro proliferation assays; type: cell-based; conditions: combination Compound A × listed BTK inhibitor, 72-hour proliferation
[2] = system: panel of breast cancer cell lines; assay: Compound A with targeted agents and chemotherapies, 72-hour in vitro proliferation assays; type: cell-based; conditions: compound A × partner, 72-hour proliferation

CC#CC(=O)N1CC[C@@H](n2c(=O)n(-c3ccc(Oc4ccccc4)cc3)c3c(N)ncnc32)C1 [Tirabrutinib]
Best CI ([1]; HBL-1 cells): 0.06 | Best CI Level ([1]; HBL-1 cells): 60 | Bliss Volume ([1]; HBL-1 cells): 3.09 | HSA volume ([1]; HBL-1 cells): 8.94 | Loewe Volume ([1]; HBL-1 cells): 8.17 | Synergy Score ([1]; HBL-1 cells): 7.02 | Best CI ([1]; OCI-Ly10 cells): 0.63 | Best CI Level ([1]; OCI-Ly10 cells): 80 | Bliss Volume ([1]; OCI-Ly10 cells): 0.21 | HSA volume ([1]; OCI-Ly10 cells): 3.22 | Loewe Volume ([1]; OCI-Ly10 cells): 1.63 | Synergy Score ([1]; OCI-Ly10 cells): 2.72 | Best CI ([1]; SU-DHL-2 cells): 0.42 | Best CI Level ([1]; SU-DHL-2 cells): 20 | Bliss Volume ([1]; SU-DHL-2 cells): 0.39 | HSA volume ([1]; SU-DHL-2 cells): −0.97 | Loewe Volume ([1]; SU-DHL-2 cells): 1.23 | Synergy Score ([1]; SU-DHL-2 cells): 0.98 | Best CI ([1]; SU-DHL-4 cells): 0.84 | Best CI Level ([1]; SU-DHL-4 cells): 20 | Bliss Volume ([1]; SU-DHL-4 cells): 1.52 | HSA volume ([1]; SU-DHL-4 cells): −2.97 | Loewe Volume ([1]; SU-DHL-4 cells): −0.81 | Synergy Score ([1]; SU-DHL-4 cells): 1.10 | Best CI ([1]; SU-DHL-8 cells): 0.45 | Best CI Level ([1]; SU-DHL-8 cells): 20 | Bliss Volume ([1]; SU-DHL-8 cells): 4.13 | HSA volume ([1]; SU-DHL-8 cells): −6.01 | Loewe Volume ([1]; SU-DHL-8 cells): −3.72 | Synergy Score ([1]; SU-DHL-8 cells): 0.60 | Best CI ([1]; TMD8 cells): 0.87 | Best CI Level ([1]; TMD8 cells): 20 | Bliss Volume ([1]; TMD8 cells): 1.28 | HSA volume ([1]; TMD8 cells): 3.05 | Loewe Volume ([1]; TMD8 cells): 1.96 | Synergy Score ([1]; TMD8 cells): 2.92 | Best CI ([1]; U-2932 cells): 0.62 | Best CI Level ([1]; U-2932 cells): 65 | Bliss Volume ([1]; U-2932 cells): 1.92 | HSA volume ([1]; U-2932 cells): 4.85 | Loewe Volume ([1]; U-2932 cells): 4.66 | Synergy Score ([1]; U-2932 cells): 3.69

C=CC(=O)N1CCC([C@@H]2CCNc3c(C(N)=O)c(-c4ccc(Oc5ccccc5)cc4)nn32)CC1 [Zanubrutinib]
Best CI ([1]; HBL-1 cells): 0.05 | Best CI Level ([1]; HBL-1 cells): 55 | Bliss Volume ([1]; HBL-1 cells): 5.13 | HSA volume ([1]; HBL-1 cells): 10.34 | Loewe Volume ([1]; HBL-1 cells): 9.75 | Synergy Score ([1]; HBL-1 cells): 8.18 | Best CI ([1]; OCI-Ly10 cells): 0.50 | Best CI Level ([1]; OCI-Ly10 cells): 80 | Bliss Volume ([1]; OCI-Ly10 cells): 1.36 | HSA volume ([1]; OCI-Ly10 cells): 3.82 | Loewe Volume ([1]; OCI-Ly10 cells): 3.55 | Synergy Score ([1]; OCI-Ly10 cells): 4.04 | Best CI ([1]; SU-DHL-2 cells): 0.86 | Best CI Level ([1]; SU-DHL-2 cells): 40 | Bliss Volume ([1]; SU-DHL-2 cells): 1.42 | HSA volume ([1]; SU-DHL-2 cells): 0.63 | Loewe Volume ([1]; SU-DHL-2 cells): 1.23 | Synergy Score ([1]; SU-DHL-2 cells): 0.72 | Best CI ([1]; SU-DHL-4 cells): 1.06 | Best CI Level ([1]; SU-DHL-4 cells): 20 | Bliss Volume ([1]; SU-DHL-4 cells): 0.06 | HSA volume ([1]; SU-DHL-4 cells): −4.15 | Loewe Volume ([1]; SU-DHL-4 cells): −4.24 | Synergy Score ([1]; SU-DHL-4 cells): 0.76 | Best CI ([1]; SU-DHL-8 cells): 0.52 | Best CI Level ([1]; SU-DHL-8 cells): 30 | Bliss Volume ([1]; SU-DHL-8 cells): −5.98 | HSA volume ([1]; SU-DHL-8 cells): −5.32 | Loewe Volume ([1]; SU-DHL-8 cells): −5.81 | Synergy Score ([1]; SU-DHL-8 cells): 0.66 | Best CI ([1]; TMD8 cells): 0.07 | Best CI Level ([1]; TMD8 cells): 80 | Bliss Volume ([1]; TMD8 cells): 2.31 | HSA volume ([1]; TMD8 cells): 4.24 | Loewe Volume ([1]; TMD8 cells): 3.33 | Synergy Score ([1]; TMD8 cells): 3.91 | Best CI ([1]; U-2932 cells): 0.54 | Best CI Level ([1]; U-2932 cells): 65 | Bliss Volume ([1]; U-2932 cells): 5.21 | HSA volume ([1]; U-2932 cells): 7.71 | Loewe Volume ([1]; U-2932 cells): 7.67 | Synergy Score ([1]; U-2932 cells): 4.92

CC#CC(=O)N1CCC[C@H]1c1nc(-c2ccc(C(=O)Nc3ccccn3)cc2)c2c(N)nccn12 [Acalabrutinib]
Best CI ([1]; HBL-1 cells): 0.09 | Best CI Level ([1]; HBL-1 cells): 55 | Bliss Volume ([1]; HBL-1 cells): 4.86 | HSA volume ([1]; HBL-1 cells): 9.39 | Loewe Volume ([1]; HBL-1 cells): 9.09 | Synergy Score ([1]; HBL-1 cells): 7.28 | Best CI ([1]; OCI-Ly10 cells): 0.69 | Best CI Level ([1]; OCI-Ly10 cells): 80 | Bliss Volume ([1]; OCI-Ly10 cells): −1.82 | HSA volume ([1]; OCI-Ly10 cells): 0.62 | Loewe Volume ([1]; OCI-Ly10 cells): −0.84 | Synergy Score ([1]; OCI-Ly10 cells): 1.59 | Best CI ([1]; SU-DHL-2 cells): 0.39 | Best CI Level ([1]; SU-DHL-2 cells): 20 | Bliss Volume ([1]; SU-DHL-2 cells): 1.10 | HSA volume ([1]; SU-DHL-2 cells): 1.30 | Loewe Volume ([1]; SU-DHL-2 cells): 2.29 | Synergy Score ([1]; SU-DHL-2 cells): 1.76 | Best CI ([1]; SU-DHL-4 cells): 0.90 | Best CI Level ([1]; SU-DHL-4 cells): 80 | Bliss Volume ([1]; SU-DHL-4 cells): 0.66 | HSA volume ([1]; SU-DHL-4 cells): −3.54 | Loewe Volume ([1]; SU-DHL-4 cells): −2.10 | Synergy Score ([1]; SU-DHL-4 cells): 1.02 | Best CI ([1]; SU-DHL-8 cells): 0.79 | Best CI Level ([1]; SU-DHL-8 cells): 20 | Bliss Volume ([1]; SU-DHL-8 cells): 3.28 | HSA volume ([1]; SU-DHL-8 cells): −5.31 | Loewe Volume ([1]; SU-DHL-8 cells): −3.08 | Synergy Score ([1]; SU-DHL-8 cells): 0.52 | Best CI ([1]; TMD8 cells): 0.09 | Best CI Level ([1]; TMD8 cells): 80 | Bliss Volume ([1]; TMD8 cells): 2.07 | HSA volume ([1]; TMD8 cells): 3.89 | Loewe Volume ([1]; TMD8 cells): 2.90 | Synergy Score ([1]; TMD8 cells): 3.60 | Best CI ([1]; U-2932 cells): 0.49 | Best CI Level ([1]; U-2932 cells): 65 | Bliss Volume ([1]; U-2932 cells): 5.67 | HSA volume ([1]; U-2932 cells): 7.07 | Loewe Volume ([1]; U-2932 cells): 7.67 | Synergy Score ([1]; U-2932 cells): 4.74

CN(C)C(=O)c1cc2cnc(Nc3ccc(N4CCNCC4)cn3)nc2n1C1CCCC1 [LEE011]
Best CI ([2]; AU565 cell line): 1.01 | Bliss Volume ([2]; AU565 cell line): −1.41 | HSA volume ([2]; AU565 cell line): −6.50 | Loewe Volume ([2]; AU565 cell line): −4.57 | Synergy Score ([2]; AU565 cell line): 1.58 | Best CI ([2]; BT-20 cell line): 0.78 | Bliss Volume ([2]; BT-20 cell line): −2.26 | HSA volume ([2]; BT-20 cell line): −1.79 | Loewe Volume ([2]; BT-20 cell line): −2.17 | Synergy Score ([2]; BT-20 cell line): 2.30 | Best CI ([2]; CAL-51 cell line): 0.77 | Bliss Volume ([2]; CAL-51 cell line): −1.68 | HSA volume ([2]; CAL-51 cell line): −1.56 | Loewe Volume ([2]; CAL-51 cell line): −1.27 | Synergy Score ([2]; CAL-51 cell line): 0.34 | Best CI ([2]; CAL-85-1 cell line): 0.64 | Bliss Volume ([2]; CAL-85-1 cell line): −5.58 | HSA volume ([2]; CAL-85-1 cell line): −9.15 | Loewe Volume ([2]; CAL-85-1 cell line): −7.95 | Synergy Score ([2]; CAL-85-1 cell line): 0.23 | Best CI ([2]; CAL-120 cell line): 0.62 | Bliss Volume ([2]; CAL-120 cell line): −1.14 | HSA volume ([2]; CAL-120 cell line): −5.68 | Loewe Volume ([2]; CAL-120 cell line): −5.28 | Synergy Score ([2]; CAL-120 cell line): 0.15 | Best CI ([2]; CAL-148 cell line): 0.86 | Bliss Volume ([2]; CAL-148 cell line): −4.27 | HSA volume ([2]; CAL-148 cell line): −5.99 | Loewe Volume ([2]; CAL-148 cell line): −4.10 | Synergy Score ([2]; CAL-148 cell line): 0.81 | Best CI ([2]; CAMA-1 cell line): 0.73 | Bliss Volume ([2]; CAMA-1 cell line): −3.85 | Loewe Volume ([2]; CAMA-1 cell line): −6.51 | Synergy Score ([2]; CAMA-1 cell line): 1.09 | Best CI ([2]; DU-4475 cell line): 0.47 | Bliss Volume ([2]; DU-4475 cell line): 1.64 | HSA volume ([2]; DU-4475 cell line): 0.20 | Loewe Volume ([2]; DU-4475 cell line): 1.04 | Synergy Score ([2]; DU-4475 cell line): 0.98 | Best CI ([2]; EVSA-T cell line): 0.63 | Bliss Volume ([2]; EVSA-T cell line): −0.43 | HSA volume ([2]; EVSA-T cell line): −2.18 | Synergy Score ([2]; EVSA-T cell line): 0.34 | Best CI ([2]; HCC38): 0.44 | Bliss Volume ([2]; HCC38): −4.85 | HSA volume ([2]; HCC38): −8.61 | Loewe Volume ([2]; HCC38): −9.77 | Synergy Score ([2]; HCC38): 1.12 | Best CI ([2]; HCC70): 0.93 | Bliss Volume ([2]; HCC70): −0.15 | HSA volume ([2]; HCC70): 0.16 | Loewe Volume ([2]; HCC70): 0.49 | Synergy Score ([2]; HCC70): 6.12 | Bliss Volume ([2]; HCC1143): −3.25 | HSA volume ([2]; HCC1143): −7.75 | Loewe Volume ([2]; HCC1143): −9.95 | Synergy Score ([2]; HCC1143): 1.30 | Best CI ([2]; HCC1569): 0.47 | Bliss Volume ([2]; HCC1569): 5.70 | HSA volume ([2]; HCC1569): 1.89 | Loewe Volume ([2]; HCC1569): 5.08 | Synergy Score ([2]; HCC1569): 3.87 | Best CI ([2]; HCC1806): 0.56 | Bliss Volume ([2]; HCC1806): −3.98 | HSA volume ([2]; HCC1806): −8.72 | Loewe Volume ([2]; HCC1806): −4.05 | Synergy Score ([2]; HCC1806): 0.65 | Best CI ([2]; HCC1937): 0.74 | Bliss Volume ([2]; HCC1937): 2.31 | HSA volume ([2]; HCC1937): −2.66 | Loewe Volume ([2]; HCC1937): 1.04 | Synergy Score ([2]; HCC1937): 2.13 | Best CI ([2]; HCC1954): 0.72 | Bliss Volume ([2]; HCC1954): −0.75 | Loewe Volume ([2]; HCC1954): −1.17 | Synergy Score ([2]; HCC1954): 4.48 | Best CI ([2]; HCC2218): 0.73 | Bliss Volume ([2]; HCC2218): −5.40 | HSA volume ([2]; HCC2218): −4.99 | Loewe Volume ([2]; HCC2218): −5.90 | Synergy Score ([2]; HCC2218): 1.69 | Best CI ([2]; HDQ-P1): 0.04 | Bliss Volume ([2]; HDQ-P1): −2.80 | HSA volume ([2]; HDQ-P1): −6.22 | Loewe Volume ([2]; HDQ-P1): −9.02 | Synergy Score ([2]; HDQ-P1): 0.15 | Best CI ([2]; HMC-1-8): 0.81 | Bliss Volume ([2]; HMC-1-8): 9.82 | HSA volume ([2]; HMC-1-8): 5.13 | Loewe Volume ([2]; HMC-1-8): 5.78 | Synergy Score ([2]; HMC-1-8): 9.01 | Best CI ([2]; JIMT-1): 0.00 | Bliss Volume ([2]; JIMT-1): 0.29 | HSA volume ([2]; JIMT-1): −2.46 | Loewe Volume ([2]; JIMT-1): −4.06 | Synergy Score ([2]; JIMT-1): 0.28 | Best CI ([2]; KPL-1): 0.65 | Bliss Volume ([2]; KPL-1): 0.36 | HSA volume ([2]; KPL-1): −0.31 | Synergy Score ([2]; KPL-1): 1.43

Reference: patent US11931424B2, “Combination MCL-1 inhibitors with anti-body drug conjugates” (Gilead Sciences, Inc., priority 2021, dated 2024)
